One data set relates to ribose-treated rats. In words: Ribose rat model, intervention by compounds (Phase III). It is filed as in vivo. The settings on record: for Albumin effusion rate (AER): absence of ribose, pyridoxamine and TPP 250 mg/kg, aminoguanidine 25 mg/kg. How it is done:
Sixty rats were randomized into 9 different groups, including those exposed to 1 M ribose for 8 days in the presence and absence of aminoguanidine, pyridoxamine, and thiamine pyrophosphate as follows:
(ii) high dose (250 mg/kg body weight) of pyridoxamine (“compound-P”);
(iii) high dose (250 mg/kg body weight of thiamine pyrophosphate (“compound-T” or “TPP”); and
(iv) low dose (25 mg/kg body weight) of aminoguanidine (“AG”).
(i) only 1 M ribose-saline (2×9 cc daily IP for 8 days);
(ii) ribose plus low dose (“LP”) of pyridoxamine (25 mg/kg body weight injected as 0.5 ml with 9 cc ribose);
(iii) ribose plus high dose (“HP”) of pyridoxamine (250 mg/kg body weight injected as 0.5 ml with 9 cc ribose);
(iv) ribose plus high dose (“HT”) of thiamine pyrophosphate (250 mg/kg body weight injected as 0.5 ml with 9 cc ribose); and
(v) ribose plus low dose of amino guanidine (25 mg/kg body weight injected as 0.5 ml with 9 cc ribose).
Unlike Phase II, no ribose was administered in drinking water. Intervention compounds were pre-administered for one day prior to introducing them with ribose.

The subject of data set [1] is AGE formation during uninterrupted glycation of bovine serum albumin (BSA) by ribose. Nature of the data set: Uninterrupted ribose glycation assay, BSA. It is filed as biochemical. The settings on record: 0.05 M ribose, 6 weeks, inhibitors 0.5-50 mM. As to the method:
ELISA detection of AGE products. The general method of Engvall (1981, Methods Enzymol. 70:419-439) was used to perform the ELISA. Typically, glycated protein samples were diluted to approximately 1.5 ug/ml in 0.1 M sodium carbonate buffer of pH 9.5 to 9.7. The protein was coated overnight at room temperature onto 96-well polystyrene plates by pippetting 200 ul of the protein solution in each well (0.3 ug/well). After coating, the protein was washed from the wells with a saline solution containing 0.05% Tween-20. The wells were then blocked with 200 ul of 1% casein in carbonate buffer for 2 h at 37° C. followed by washing. Rabbit anti-AGE antibodies were diluted at a titer of about 1:350 in incubation buffer, and incubated for 1 h at 37° C., followed by washing. In order to minimize background readings, antibodies R479 used to detect glycated RNase were raised against glycated BSA, and antibodies R618 used to detect glycated BSA and glycated Hb were raised against glycated RNase. An alkaline phosphatase-conjugated antibody to rabbit IgG was then added as the secondary antibody at a titer of 1:2000 or 1:2500 (depending on lot) and incubated for 1 h at 37° C., followed by washing. The p-nitrophenylphosphate substrate solution was then added (200 ul/well) to the plates, with the absorbance of the released p-nitrophenolate being monitored at 410 nm with a Dynatech MR 4000 microplate reader.
Uninterrupted ribose glycation assays Bovine serum albumin, ribonuclease A, and human hemoglobin were incubated with ribose at 37° C. in 0.4 M sodium phosphate buffer of pH 7.5 containing 0.02% sodium azide. The protein (10 mg/ml or 1 mg/ml), 0.05 M ribose, and prospective inhibitors (at 0.5, 3, 15 and 50 mM) were introduced into the incubation mixture simultaneously. Solutions were kept in the dark in capped tubes. Aliquots were taken and immediately frozen until analyzed by ELISA at the conclusion of the reaction. The incubations were for 3 weeks (Hb) or 6 weeks (RNase, BSA). Glycation reactions were monitored for constant pH throughout the duration of the experiments.

Setting [2] is: co-administered with 1 M ribose, low dose 25 mg/kg.
[3] abbreviates: co-administered with 1 M ribose, 250 mg/kg.
Setting [4] is: compound alone, 250 mg/kg, no ribose.

Take `N=C(N)NN` [aminoguanidine, reference compound]: the “Albumin effusion rate (AER)” value in the data set with ribose-treated rats is “elevated”. In the data set with ribose-treated rats (setting [2]), the Albumin effusion rate result is “restored to normal” and the creatinine clearance entry is given as “normalized”. The “inhibition of overall kinetics of AGE formation from ribose” value (from here on “inhibition”) in data set [1] is given as “appearing to slow the rate of AGE formation without significantly affecting the final levels of AGE formed”.
As for `Cc1ncc(CO)c(CN)c1O` [pyridoxamine], the “Albumin effusion rate (AER)” value in the data set on ribose-treated rats is recorded as “elevated”. Besides, the creatinine clearance result is “only partial protection against the ribose-induced decrease in creatinine clearance” in the data set on ribose-treated rats (setting [3]); “normalized” in the data set on ribose-treated rats (setting [2]); “but not pyridoxamine, appeared to decrease creatinine clearance” in the data set on ribose-treated rats (setting [4]). For the same compound, in the data set with ribose-treated rats (setting [2]), the Albumin effusion rate entry was “restored to normal”. The “inhibition” value in data set [1] was “exhibited some inhibition at lower concentrations, and at the highest concentration tested appeared to inhibit the final levels of AGE formed more effectively than any of the other B6 derivatives”.
`Cc1ncc(C[n+]2csc(CCO[P@](=O)(O)OP(=O)(O)O)c2C)c(N)n1` [thiamine pyrophosphate]: the “Albumin effusion rate (AER)” value in the data set on ribose-treated rats was “elevated”. Besides, the creatinine clearance result in the data set on ribose-treated rats (setting [3]) is “only partial protection against the ribose-induced decrease in creatinine clearance”; in the data set with ribose-treated rats (setting [4]), “diminished it”. The “inhibition” value in data set [1] was “inhibited the final levels of AGEs formed, without greatly affecting the rate of AGE formation”.

For the origin of these results see patent publication US6716858B1, “Methods for inhibiting diabetic complications” (Kansas University Medical Center, priority 1995, dated 2004).
